The record followed here is publication PMC4047925 (Journal of Agricultural and Food Chemistry, 2014).

The test can be described thus: hydroxyl radical-scavenging assay. It is filed as biochemical. To be noted: ED50 <20 μM considered active.
For `COC(=O)C(C)n1c(C=O)ccc1CO` (stereo not drawn) [Compound 1, methyl 2-[2-formyl-5-(hydroxymethyl)-1H-pyrrol-1-yl]propanoate], the “hydroxyl radical scavenging ED50 (concentration scavenging hydroxyl radical by 50%)” value was 16.7 µM.

With `O=c1c(O)c(-c2ccc(O)c(O)c2)oc2cc(O)cc(O)c12` [quercetin, reference compound], the “hydroxyl radical scavenging ED50 (concentration scavenging hydroxyl radical by 50%)” value was found to be 1.3 µM. The same measure for `CC(=O)c1ccc(O)cn1` [Compound 6, 5-hydroxy-2-pyridyl methyl ketone]: above 20 µM.
